Measured values: patent US7019135B2, “Anti-viral pyrimidine nucleoside analogues” (University College Cardiff Consultants Limited, priority 2000, dated 2006)
Entries after “also recorded” stand apart in the source; their conditions may differ.

Key:
[1] = tested on: HSV-1; settings: in vitro; Can. J. Chem. 74, 1609, 1996; cited from earlier work
[2] = tested on: HSV-2; settings: in vitro; Can. J. Chem. 74, 1609, 1996; cited from earlier work
[3] = tested on: VZV; settings: in vitro; Can. J. Chem. 74, 1609, 1996; cited from earlier work
[4] = tested on: CMV; settings: in vitro; Can. J. Chem. 74, 1609, 1996; cited from earlier work
[5] = tested on: Varicella zoster virus (VZV); settings: said in WO 98/49177; cited from earlier work
[6] = tested on: CMV; settings: said in WO 98/49177; cited from earlier work
[7] = tested on: CMV strain AD169; assay: CMV strain AD169 induced cytopathicity in HEL cells; format: cell-based, cytomegalo virus; settings: Human betaherpesvirus 5, AD169, 168 h, 50% reduction of virus induced cytopathicity, 7 days post infection
Protocol: (§1) Each of the products of Examples 1 to 9 was tested in vitro in tissue cultures for toxicity and for potent antiviral actions with respect to cytomegalo virus (CMV). EC50/μM CMV-AD169 is the drug concentration in μM required to reduce by 50% CMV strain AD169 induced cytopathicity in human embryonic lung fibroblast (HEL) cells measured 7 days post infection compared to untreated control. Further details of the methodology employed can be found in McGuigan et al. J. Med. Chem., 1999, 42, 4479-4484.

[8] = tested on: CMV strain Davis; assay: CMV strain Davis induced cytopathicity in HEL cells; format: cell-based, cytomegalo virus; settings: Human betaherpesvirus 5, 168 h, 50% reduction of virus induced cytopathicity, 7 days post infection
Protocol: as §1, with “CMV Davis” for “CMV-AD169”, “Davis” for “AD169”

[9] = tested on: human embryonic lung cells; assay: minimum cytotoxic concentration to human embryonic lung cells; format: cell-based; settings: for MCC/μM: minimum cytotoxic concentration, human embryonic lung cells; for toxicity (in words): summary of the table data
Protocol: (§2) Each of the products of Examples 1 to 9 was tested in vitro in tissue cultures for toxicity and for potent antiviral actions with respect to cytomegalo virus (CMV). MCC/μM is the minimum cytotoxic concentration to human embryonic lung cells. Further details of the methodology employed can be found in McGuigan et al. J. Med. Chem., 1999, 42, 4479-4484.

[10] = concentration required to reduce the cell number by 50%; format: cell-based; settings: human, human embryonic lung cells; concentration reducing the cell number by 50%
Protocol: as §2, with “CC50/μM” for “MCC/μM”, “compound” for “minimum cytotoxic”, “concentration required” for “concentration”, “reduce the cell number by 50%.” for “human embryonic lung cells.”

[11] = tested on: cytomegalo virus (CMV); assay: anti-CMV activity in tissue culture, summary in words of the table; format: cell-based; settings: for anti-CMV activity (in words): summary of the table data, comparison with Ganciclovir
Protocol: as §1, with “EC50/μM CMV Davis is” for “Further details of”, “drug concentration” for “methodology employed can be found”, “μM required to reduce by 50% CMV strain Davis induced cytopathicity in human embryonic lung fibroblast (HEL) cells measured 7 days post infection compared to untreated control.” for “McGuigan et al. J. Med. Chem., 1999, 42, 4479-4484.”

[12] = tested on: VZV OKA strain; assay: VZV OKA strain induced cytopathicity in HEL cells; format: cell-based, Varicella zoster virus; settings: Human alphaherpesvirus 3, HEL, 168 h, read-out: EC50 VZV OKA strain
Protocol: (§3) The compound of Example 3 wherein R is -nC10H21 was tested to assess its potency against VZV. Employing the equivalent EC50 assay as set out above, namely a measurement of the drug concentration required to reduce by 50% the VZV induced cytopathicity in human embryonic fibroblast (HEL) measured 7 days post infection, a concentration of 40 μM was found with respect to VZV OKA strain and a concentration of 20 μM was measured with respect to VZV YS strain.

[13] = tested on: VZV YS strain; assay: VZV YS strain induced cytopathicity in HEL cells; format: cell-based, Varicella zoster virus; settings: Human alphaherpesvirus 3, 168 h, 50% reduction of VZV induced cytopathicity, 7 days post infection
Protocol: as §3

| EC50 [7] [µM] | EC50 [8] [µM] | SMILES | MCC/μM [9] [µM] | CC50 [10] [µM] | toxicity (in words) [9] | anti-CMV activity (in words) [11] | other results |
| --- | --- | --- | --- | --- | --- | --- | --- |
|  |  | O=c1nc2occc2cn1C1CC(O)C(CO)O1 (centres unmarked) |  |  |  |  | activity against HSV-1 (in words) [1]: inactive; activity against HSV-2 (in words) [2]: inactive; activity against VZV (in words) [3]: inactive; activity against CMV (in words) [4]: inactive |
|  |  | CCCCCCCCCCc1cc2cn([C@H]3C[C@H](O)[C@@H](CO)O3)c(=O)nc2o1 [3-(2′-deoxy-β-D-ribofuranosyl)-6-decyl-2,3-dihydrofuro[2,3-d]pyrimidin-2-one] |  |  |  |  | anti-Varicella zoster virus (VZV) activity (in words) [5]: potent |
|  |  | O=c1nc2oc(CCCCCCCCCCl)cc2cn1C1CC(O)C(CO)O1 (centres unmarked) [6-(9-chlorononyl)-3-(4-hydroxy-5-(hydroxymethyl)tetrahydro-2-furanyl)-2,3-dihydrofuro[2,3,-d] pyrimidin-2-one] |  |  |  |  | anti-CMV activity (in words) [6]: demonstrate anti-CMV activity |
| 32 | > 50 | CCCCCCc1cc2cn(C3CCC(CO)O3)c(=O)nc2o1 [Example 1, 3-[2′,3′-dideoxy-ribo-β-D-furanosyl]-6-hexyl-2,3-dihydrofuro[2,3-d]pyrimidin-2-one] | 200 | 143 |  |  |  |
| 1.5 | 2.4 | CCCCCCCCc1cc2cn(C3CCC(CO)O3)c(=O)nc2o1 [Example 2, 3-[2′3′-dideoxy-ribo-β-D-furanosyl]-6-octyl-2,3-dihydrofuro[2,3-d]pyrimidin-2-one] | 20 | 112 | toxicity greater than any of the compounds of Examples 1, 3, 4, 5 and 6 | potent anti-CMV activity |  |
| 3.7 | 5 | CCCCCCCCCCCCc1cc2cn(C3CCC(CO)O3)c(=O)nc2o1 [Example 4, 3-[2′,3′-dideoxy-ribo-β-D-furanosyl]-6-dodecyl-2,3-dihydrofuro[2,3-d]pyrimidin-2-one] | 200 | > 200 | acceptable level of toxicity | at least comparable to that of the known drug Ganciclovir |  |
| 25 | 40 | CCCCCCCCCCCCCCc1cc2cn(C3CCC(CO)O3)c(=O)nc2o1 [Example 5, 3-[2′,3′-dideoxy-ribo-β-D-furanosyl]-6-tetradecyl-2,3-dihydrofuro[2,3-d]pyrimidin-2-one] | 200 | > 200 |  |  |  |
| 1.2 | 1.3 | CCCCCCCCCc1cc2cn(C3CCC(CO)O3)c(=O)nc2o1 [Example 6, 3-[2′,3′-dideoxy-ribo-β-D-furanosyl]-6-nonyl-2,3-dihydrofuro[2,3-d]pyrimidin-2-one] | 200 | > 200 | acceptable level of toxicity | potent anti-CMV activity; also recorded: at least comparable to that of the known drug Ganciclovir |  |
| 1.4 | 1.2 | CCCCCCCCCCCc1cc2cn(C3CCC(CO)O3)c(=O)nc2o1 [Example 7, 3-[2′,3′-dideoxy-ribo-β-D-furanosyl]-6-undecyl-2,3-dihydrofuro[2,3-d]pyrimidin-2-one] | 50 | > 200 | toxicity greater than any of the compounds of Examples 1, 3, 4, 5 and 6 | potent anti-CMV activity |  |
| 1.2 | 1 | CCCCOCCCCCCCCCc1cc2cn(C3CCC(CO)O3)c(=O)nc2o1 [Example 8, 3-(2′-3′-Dideoxy-β-D-ribofuranosyl)-6-[9-butyloxynonyl]-2,3-dihydrofuro[2,3-d]pyrimidin-2-one] | 5 | 200 | toxicity greater than any of the compounds of Examples 1, 3, 4, 5 and 6 | potent anti-CMV activity |  |
| 2.6 | 3.4 | Nc1nc(O)c2ncn(COC(CO)CO)c2n1 [Ganciclovir, reference compound] | >150 |  |  |  |  |

| SMILES | EC50 [7] [µM] | EC50 [8] [µM] | MCC/μM [9] [µM] | CC50 [10] [µM] | toxicity (in words) [9] | anti-CMV activity (in words) [11] | other results |
| --- | --- | --- | --- | --- | --- | --- | --- |
| CCCCCCCCCCc1cc2cn(C3CCC(CO)O3)c(=O)nc2o1 [Example 3, 3-[2′,3′-dideoxy-ribo-β-D-furanosyl]-6-decyl-2,3-dihydrofuro[2,3-d]pyrimidin-2-one] | 2.6 | 3.2 | >200 | > 200 | acceptable level of toxicity | at least comparable to that of the known drug Ganciclovir | EC50 [12]: 40 µM; EC50 [13]: 20 µM; activity against CMV compared with VZV (in words) ([11]; CMV versus VZV EC50): substantially more active against CMV, than against VZV |
| O=c1nc2oc(CCCCCCCCCOCCCCCl)cc2cn1C1CCC(CO)O1 [Example 9, 3-(2′-3′-Dideoxy-β-D-ribofuranosyl)-6-[9-(4-chlorobutoxy)nonyl]-2,3-dihydrofuro[2,3-d]pyrimidin-2-one] | 2.6 | 1 | 20 | > 200 | toxicity greater than any of the compounds of Examples 1, 3, 4, 5 and 6 | potent anti-CMV activity |  |
